Assay: compressibility factor (dimensionless)
Settings: Gas, Burnett expansion method

[N-]=[N+]=O [nitrous oxide]
Settings | compressibility factor
283.5 K, 207.4 kPa | 0.9884
283.5 K, 308.1 kPa | 0.9809
283.5 K, 456.3 kPa | 0.9705
283.5 K, 672.4 kPa | 0.9554
283.5 K, 983.6 kPa | 0.9337
283.5 K, 1422.1 kPa | 0.9019
283.5 K, 2020 kPa | 0.8558
283.5 K, 2788.1 kPa | 0.7891
283.5 K, 3680.3 kPa | 0.6958
283.51 K, 170.6 kPa | 0.9917
283.51 K, 253.7 kPa | 0.9848
283.51 K, 376.3 kPa | 0.9761
283.51 K, 556.2 kPa | 0.9636
283.51 K, 816.9 kPa | 0.9456
283.51 K, 1188.9 kPa | 0.9193
283.51 K, 1705.3 kPa | 0.8809
283.51 K, 2390.6 kPa | 0.825
283.51 K, 3232.1 kPa | 0.7451
304.09 K, 194 kPa | 0.99
304.09 K, 288.7 kPa | 0.9846
304.09 K, 429.3 kPa | 0.9779
304.09 K, 635.2 kPa | 0.9666
304.09 K, 935.6 kPa | 0.9511
304.09 K, 1366.6 kPa | 0.9281
304.09 K, 1968.7 kPa | 0.8932
304.09 K, 2781.3 kPa | 0.843
304.09 K, 3812.3 kPa | 0.772
304.1 K, 204 kPa | 0.9912
304.1 K, 303.6 kPa | 0.9853
304.1 K, 450.8 kPa | 0.9772
304.1 K, 666.7 kPa | 0.9655
304.1 K, 980.2 kPa | 0.9484
304.1 K, 1428.5 kPa | 0.9233
304.1 K, 2054.5 kPa | 0.8871
304.1 K, 2893.4 kPa | 0.8347
304.1 K, 3945.6 kPa | 0.7604
314.41 K, 193.8 kPa | 0.9927
314.41 K, 288.6 kPa | 0.9878
314.41 K, 429 kPa | 0.9808
314.41 K, 635.5 kPa | 0.9706
314.41 K, 936.8 kPa | 0.9558
314.41 K, 1371.3 kPa | 0.9347
314.41 K, 1984.4 kPa | 0.9036
314.41 K, 2822.9 kPa | 0.8587
314.41 K, 3911.4 kPa | 0.7949
314.42 K, 201.1 kPa | 0.992
314.42 K, 299.5 kPa | 0.9869
314.42 K, 445.1 kPa | 0.9798
314.42 K, 659.3 kPa | 0.9696
314.42 K, 971.5 kPa | 0.9545
314.42 K, 1420.6 kPa | 0.9324
314.42 K, 2052.9 kPa | 0.9001
314.42 K, 2915.1 kPa | 0.8539
314.42 K, 4027.4 kPa | 0.7881
324.78 K, 182.9 kPa | 0.9923
324.78 K, 272.8 kPa | 0.9888
324.78 K, 406.1 kPa | 0.9831
324.78 K, 602.6 kPa | 0.9746
324.78 K, 891.4 kPa | 0.9631
324.78 K, 1309.1 kPa | 0.9449
324.78 K, 1904.7 kPa | 0.9185
324.78 K, 2731.6 kPa | 0.88
324.78 K, 3833.8 kPa | 0.8251
324.79 K, 183.9 kPa | 0.9933
324.79 K, 274.1 kPa | 0.9891
324.79 K, 407.9 kPa | 0.9833
324.79 K, 605.3 kPa | 0.9748
324.79 K, 894.5 kPa | 0.9623
324.79 K, 1313.6 kPa | 0.9441
324.79 K, 1910.8 kPa | 0.9174
324.79 K, 2740 kPa | 0.8789
324.79 K, 3845.5 kPa | 0.824
